# Literature values in patent publication US9353185B2, “Antibodies” (Affitech Research AS, priority 2010, dated 2016).
# What was measured:
# X4 HIV strains = conditions: in vitro and in vivo in clinical trials in humans; cited from earlier work
# [1] = tested on: acute myeloid leukaemia (AML); conditions: Mozobil pre-conditioning prior to MEC chemotherapy; patients available for first follow-up evaluation; cited from earlier work
# [2] = tested on: CXCR4 expressing cell lines; conditions: range of CXCR4 expressing cell lines; cited from earlier work
# [3] = tested on: AML and lymphoma tumor xenograft models; conditions: multiple AML and lymphoma tumor xenograft models; cited from earlier work
# [4] = tested on: Th2-mediated inflammatory response; conditions: Hu et al, 2006; cited from earlier work
compound,measurement,setting,value
"c1cc(CN2CCCNCCNCCCNCC2)ccc1CN1CCCNCCNCCCNCC1 [AMD3100, plerixafor]",inhibition of entry of X4 HIV strains,X4 HIV strains,very high efficacy
same,complete remission (CR or CRi),[1],50% of patients
"MDX-1338: anti-human CXCR4-specific, fully human monoclonal antibody from Medarex; an IgG4",induction of apoptosis,[2],induces apoptosis
same,anti-tumor activity,[3],has anti-tumor activity
c1ccc(CNCc2ccc(CN3CCCNCCNCCCNCC3)cc2)nc1 [AMD3465],effect on Th2-mediated inflammatory response,[4],abrogate the Th2-mediated inflammatory response
